Data on 1 molecule can be found in ChEMBL document CHEMBL4392837, “Identification of highly potent and selective MMP2 inhibitors addressing the S1' subsite with d-proline-based compounds” (Bioorg Med Chem, 2019).

This test is filed under the species Homo sapiens. Description: Inhibition of cell migration of human A375M6 cells at 1 to 10 uM incubated for 6 hrs by Boyden chambers assay. Format: functional.

Activity calls are given as the source filed them. The calls are words filed in the database; no cut-off is given here.

With `CNC(=O)[C@H](Cc1c[nH]c2ccccc12)NC(=O)[C@@H](CC(=O)NO)CC(C)C`, the inhibition result was “Active”.
